Assay results taken from doi:10.1101/767673v1 (bioRxiv, 2019).
Where a SMILES comes first, the peptide text is derived from it. Bridges are numbered along the chain shown (N, C = ends). [ ]: non-standard residue; d: D form. dPhe(4-CF3) = N[C@H](Cc1ccc(C(F)(F)F)cc1)C(=O)O; dTrp(6-F) = N[C@H](Cc1c[nH]c2cc(F)ccc12)C(=O)O; S8 = C=CCCCCCC[C@](C)(N)C(=O)O; R5 = C=CCCC[C@@](C)(N)C(=O)O

Assays:
[1] = target: human Mdm2 protein (amino acids 1–125) (Homo sapiens, UniProt Q00987); experiment: Isothermal titration calorimetry; assay type: binding; details: PBS pH 7.2, 3% DMSO, 0.001% Tween-20, duplicates
[2] = target: Mdm2 (1-125) (Homo sapiens, UniProt Q00987); experiment: Competitive fluorescence anisotropy / FP binding assay, Mdm2; details: FP competition assay
[3] = target: T1, Mdm4 (Homo sapiens, UniProt O15151); experiment: Competitive fluorescence anisotropy / FP binding assay, Mdm4; details: FP competition assay
T1 sequence (O15151 1-490): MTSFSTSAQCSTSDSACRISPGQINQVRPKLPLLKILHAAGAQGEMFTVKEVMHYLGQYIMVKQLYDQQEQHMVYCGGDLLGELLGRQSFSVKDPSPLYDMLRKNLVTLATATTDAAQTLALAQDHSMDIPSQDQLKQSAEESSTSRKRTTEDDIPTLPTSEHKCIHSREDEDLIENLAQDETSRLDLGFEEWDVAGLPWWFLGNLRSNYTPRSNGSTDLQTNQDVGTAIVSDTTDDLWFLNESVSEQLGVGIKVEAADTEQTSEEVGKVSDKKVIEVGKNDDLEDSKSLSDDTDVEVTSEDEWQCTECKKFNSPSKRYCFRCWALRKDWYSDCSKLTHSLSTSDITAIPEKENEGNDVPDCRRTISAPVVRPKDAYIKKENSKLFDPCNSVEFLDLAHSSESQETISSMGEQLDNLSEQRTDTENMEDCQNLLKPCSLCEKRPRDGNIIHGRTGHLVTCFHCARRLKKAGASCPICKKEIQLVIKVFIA

| ITC enthalpy of binding (ΔH) to Mdm2 [1] [kcal/mol] | Binding to Mdm2 in the FP assay [2] | Binding to Mdm4 in the FP assay [3] | SMILES |
| --- | --- | --- | --- |
| -15.8 | – | – | CC(C)C[C@@H](NC(=O)[C@@H](CC(C)C)NC(=O)[C@@H](CCCCN)NC(=O)[C@@H](CCC(=O)O)NC(=O)[C@@H](Cc1ccc(C(F)(F)F)cc1)NC(=O)[C@@H](CC(N)=O)NC(=O)[C@@]1(C)CCCC=CCCC[C@@](C)(N)C(=O)N[C@H](C)C(=O)N[C@H](Cc2c[nH]c3cc(F)ccc23)C(=O)N[C@H](Cc2ccc(O)cc2)C(=O)N1)C(=O)N[C@H](CCCNC(=N)N)C(N)=O [^dPMI-δ(1-5)] |
| – | no binding | displayed no binding | CC(C)C[C@@H](NC(=O)[C@@H](CC(C)C)NC(=O)[C@@]1(C)CCCC=CCCCCCC[C@](C)(NC(=O)[C@H](N)[C@H](C)O)C(=O)N[C@H](Cc2c[nH]c3cc(F)ccc23)C(=O)N[C@H](Cc2ccc(O)cc2)C(=O)N[C@H](C)C(=O)N[C@H](CC(N)=O)C(=O)N[C@H](Cc2ccc(C(F)(F)F)cc2)C(=O)N[C@H](CCC(=O)O)C(=O)N1)C(=O)N[C@H](CCCNC(=N)N)C(N)=O [^dPMI-δ(2-9)] (H-[dT][S8][dTrp(6-F)][dY][dA][dN][dPhe(4-CF3)][dE][R5][dL][dL][dR]-NH2; staple 2-9; N-terminus and C-terminus assumed) |
